Measurements published in article PMC10319855, “Unravelling the hidden power of esterases for biomanufacturing of short-chain esters” (Scientific Reports, 2023).

Key:
Settings in all cases: crude E. coli lysate 70 µg/mL protein, 0.1 M Na-phosphate pH 7, 37 °C
CE = molecular target: T1, CE (Brettanomyces bruxellensis, UniProt A0A7D9GZZ0); assay: p-nitrophenol release, absorbance […] nm; format: biochemical
T1 construct: gene DEBR0S1_34310G; crude lysate

tEstA = molecular target: T2, tEstA (Pseudomonas aeruginosa, UniProt O33407); assay: p-nitrophenol release, absorbance […] nm; format: biochemical
T2 construct: gene estA; crude lysate
T2 sequence (O33407 25-646): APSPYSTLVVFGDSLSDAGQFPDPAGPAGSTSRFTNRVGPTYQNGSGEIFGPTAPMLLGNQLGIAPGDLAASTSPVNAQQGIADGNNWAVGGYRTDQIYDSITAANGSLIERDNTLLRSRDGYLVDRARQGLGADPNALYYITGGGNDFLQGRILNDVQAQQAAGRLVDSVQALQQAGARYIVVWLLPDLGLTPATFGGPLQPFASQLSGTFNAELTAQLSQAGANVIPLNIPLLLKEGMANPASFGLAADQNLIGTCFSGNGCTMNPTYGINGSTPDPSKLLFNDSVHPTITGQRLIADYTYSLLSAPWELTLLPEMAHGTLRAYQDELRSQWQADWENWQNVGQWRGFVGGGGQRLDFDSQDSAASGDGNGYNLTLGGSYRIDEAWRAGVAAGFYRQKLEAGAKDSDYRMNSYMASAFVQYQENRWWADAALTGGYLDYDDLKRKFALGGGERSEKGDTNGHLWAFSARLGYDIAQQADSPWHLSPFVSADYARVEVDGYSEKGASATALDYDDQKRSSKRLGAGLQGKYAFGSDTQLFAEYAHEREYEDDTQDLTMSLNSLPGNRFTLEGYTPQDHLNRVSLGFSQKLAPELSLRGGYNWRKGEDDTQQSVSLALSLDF

AcAlT = molecular target: T3, AcAlT (Komagataella phaffii, UniProt C4QX24); assay: p-nitrophenol release, absorbance […] nm; format: biochemical
T3 construct: gene PAS_chr1-1_0419; codon-optimized gene in pET15b (pAPS07), E. coli BL21-DE3 strain SSL26; crude lysate
T3 sequence (C4QX24 1-452): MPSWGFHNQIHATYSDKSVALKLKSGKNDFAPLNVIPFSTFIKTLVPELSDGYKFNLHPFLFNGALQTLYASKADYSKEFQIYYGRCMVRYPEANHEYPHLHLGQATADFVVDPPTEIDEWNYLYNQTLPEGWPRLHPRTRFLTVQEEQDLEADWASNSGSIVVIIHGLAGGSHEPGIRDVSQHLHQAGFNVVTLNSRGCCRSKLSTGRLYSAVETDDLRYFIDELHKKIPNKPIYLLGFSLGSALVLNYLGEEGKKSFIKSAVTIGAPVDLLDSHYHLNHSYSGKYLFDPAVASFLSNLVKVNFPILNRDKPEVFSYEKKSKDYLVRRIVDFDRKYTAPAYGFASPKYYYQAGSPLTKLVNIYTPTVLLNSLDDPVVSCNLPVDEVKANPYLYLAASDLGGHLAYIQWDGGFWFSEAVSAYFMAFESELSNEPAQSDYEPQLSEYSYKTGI

EEB1 = EEB1 (Saccharomyces cerevisiae, UniProt Q02891)
Chain of EEB1 (Q02891 whole entry): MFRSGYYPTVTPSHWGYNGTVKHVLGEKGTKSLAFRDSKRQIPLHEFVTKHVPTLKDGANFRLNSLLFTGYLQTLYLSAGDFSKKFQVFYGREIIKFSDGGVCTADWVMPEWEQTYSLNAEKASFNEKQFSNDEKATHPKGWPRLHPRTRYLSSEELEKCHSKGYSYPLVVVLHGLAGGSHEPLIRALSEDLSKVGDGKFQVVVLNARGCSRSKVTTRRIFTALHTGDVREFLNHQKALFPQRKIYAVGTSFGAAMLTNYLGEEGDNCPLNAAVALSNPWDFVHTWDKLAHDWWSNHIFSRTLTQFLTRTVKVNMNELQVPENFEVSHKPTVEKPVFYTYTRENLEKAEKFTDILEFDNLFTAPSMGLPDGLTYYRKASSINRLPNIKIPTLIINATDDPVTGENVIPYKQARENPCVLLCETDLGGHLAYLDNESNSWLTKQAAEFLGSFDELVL

T1 sequence (A0A7D9GZZ0 entry or part of it): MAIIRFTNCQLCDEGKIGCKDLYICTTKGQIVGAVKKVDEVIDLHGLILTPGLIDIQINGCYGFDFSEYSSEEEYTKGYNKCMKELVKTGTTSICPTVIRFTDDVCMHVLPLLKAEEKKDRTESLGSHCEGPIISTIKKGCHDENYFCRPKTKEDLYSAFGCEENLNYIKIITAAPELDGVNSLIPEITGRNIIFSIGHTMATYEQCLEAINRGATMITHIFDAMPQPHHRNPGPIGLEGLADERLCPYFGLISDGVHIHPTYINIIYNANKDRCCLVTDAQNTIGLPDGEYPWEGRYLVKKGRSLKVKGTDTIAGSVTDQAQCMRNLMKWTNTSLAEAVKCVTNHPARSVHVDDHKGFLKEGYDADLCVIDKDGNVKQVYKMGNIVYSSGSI

CC(=O)Oc1ccc([N+](=O)[O-])cc1 [p-nitrophenyl acetate]
KM (CE): CE and tEstA, on the other hand, indicated relatively moderate hydrolysis activity with higher KM
KM (tEstA): CE and tEstA, on the other hand, indicated relatively moderate hydrolysis activity with higher KM
KM (AcAlT): AcAlT, despite being acyltransferase, showed the second highest efficiency and relatively lower KM
KM (EEB1): KM values revealed that EEB1 exhibited the highest catalytic efficiency for pNPA hydrolysis
